Measurements as given in article PMC9173638 (PLoS Genetics, 2022).
Several values for one entry are separate records, joined by “and”; a condition that tells them apart may be missing. Equal values may be shown once. Entries after “also recorded” stand apart in the source; their conditions may differ. No end group written: not given here.

Key:
PepF [1] = experiment: Screening of sXIP variants for susceptibility to PepF degradation; type: in vitro ADME, Streptococcus salivarius HSISS4; conditions: for percentage of signal loss: peptide 500 nM pre-incubated with PepF 7 nM, 4 h, 37°C vs without PepF, PcomS-luxAB ΔcomS reporter luminescence, mean of technical triplicates; for peptidase resistance in the screening: PepF 7 nM, peptide 500 nM, signal loss compared with native XIP
Procedure: We next investigated which residues of the pheromone are crucial for peptidase cleavage and screened 20 peptides variants with single XIP mutations. We incubated those peptides with PepF at a mid-range concentration previously identified for the native XIP ([PepF] of 7 nM and [XIP] of 500 nM). Next, we added the peptides incubated or not with PepF to the PcomS-luxAB ΔcomS reporter strain and analyzed the percentage of signal loss upon incubation with the peptidase. […] To quantify more accurately the PepF resistance of variants at those two positions, we used the same degradation assay as used for native sXIP and measured the EC50 for each variant (Figs 5A and S5). Since F4W, F4Y and A5I variants were the most resistant, we combined mutations at positions 4 and 5 in a single peptide to increase its robustness to degradation. […] Because our degradation assay is based on an indirect method of quantification through the use of a reporter strain, bias could be introduced by the effect of the mutations on the ComR-pheromone affinity. To rule out this possibility, we measured the ComR-binding properties of the peptides by electrophoretic mobility shift assays (S6 Fig). Since no correlation between peptide-binding to ComR and pheromone sensitivity to degradation could be drawn, we concluded that the luciferase degradation assay reflects the peptide susceptibility to PepF.
Supplementary file pgen.1010198.s004.tif: S4 Fig Screening of sXIP variants for competence activation and susceptibility to PepF degradation. Specific maximum luciferase activity (RLU/OD600) upon peptide addition is plotted against the loss of signal with the peptide pre-incubated with PepF (plotted as a percentage of signal loss). A total number of 20 sXIP variants of the native S. salivarius sXIP (LPYFAGCL) were tested. The different peptides (500 nM) were incubated during 4 h at 37°C with or without PepF (7 nM). The reaction mixture was then 10-fold diluted by addition to an exponential growing culture (CDM) of the reporter strain defective for the genetically-encoded pheromone XIP (PcomS-luxAB ΔcomS). Dots represents mean of technical triplicates. […] Red/blue dots denote peptides discarded/selected for subsequent characterization due to their weak/strong induction of competence. (TIF) Click here for additional data file.

PepF [2] = experiment: recombinant PepF in reaction buffer (20 mM Tris HCl, pH 7.0); conditions: S. salivarius HSISS4, 37°C, up to 4 h
PepF [3] = experiment: Kinetics of peptide degradation by PepF; type: in vitro ADME, Streptococcus salivarius HSISS4; conditions: PepF 8 nM, peptide 500 nM, 6 h, 37°C
Procedure: Fig 5 Degradation of PepF-resistant sXIP peptides. (A) PepF degradation efficiency for XIP (LPY[F/Y/W][A/M/I/V]GCL) variants. […] Bars denote standard deviations on the EC50 computation. (B) XIP and XIPF4WA5I kinetics of degradation by PepF. PepF (8 nM) and the peptides (500 nM) were incubated 6 hours at 37°C and sampled every hour for analysis. Reaction was stopped by adding 1 mM EDTA and further added to the PcomS-luxAB ΔcomS reporter strain as previously described. Dots show technical triplicates, the line connects mean values with error bars (standard deviation).
(§1) sXIP and derivatives were incubated at 500 nM with PepF at different concentrations ranging from 100 to 0.025 nM during 4 h at 37°C as described in the previous section. 30 μL of the mix was then added to 270 μL of exponential phase culture of a PcomS reporter strain defective for the pheromone (PcomS-luxAB ΔcomS) and maximum luciferase activity was computed as reported above. Maximum values obtained were normalized by the signal recorded for the peptide incubated without the peptidase and enzyme concentration affording half luminescence (EC50) was extrapolated using Graphpad Prism and the non-linear extrapolation equation: Signal=b+(t−b)/(1+IC50/[PepF]^HS) where t stands for top, b for bottom, and HS for Hill-Slope.

PepF [4] = molecular target: PepF (Streptococcus salivarius K12, UniProt J7TQB7); type: in vitro ADME, Streptococcus salivarius HSISS4; conditions: PepF gradient, peptide 500 nM, 4 h, 37°C
Chain of PepF (Streptococcus salivarius K12, UniProt J7TQB7) (J7TQB7 entry or part of it): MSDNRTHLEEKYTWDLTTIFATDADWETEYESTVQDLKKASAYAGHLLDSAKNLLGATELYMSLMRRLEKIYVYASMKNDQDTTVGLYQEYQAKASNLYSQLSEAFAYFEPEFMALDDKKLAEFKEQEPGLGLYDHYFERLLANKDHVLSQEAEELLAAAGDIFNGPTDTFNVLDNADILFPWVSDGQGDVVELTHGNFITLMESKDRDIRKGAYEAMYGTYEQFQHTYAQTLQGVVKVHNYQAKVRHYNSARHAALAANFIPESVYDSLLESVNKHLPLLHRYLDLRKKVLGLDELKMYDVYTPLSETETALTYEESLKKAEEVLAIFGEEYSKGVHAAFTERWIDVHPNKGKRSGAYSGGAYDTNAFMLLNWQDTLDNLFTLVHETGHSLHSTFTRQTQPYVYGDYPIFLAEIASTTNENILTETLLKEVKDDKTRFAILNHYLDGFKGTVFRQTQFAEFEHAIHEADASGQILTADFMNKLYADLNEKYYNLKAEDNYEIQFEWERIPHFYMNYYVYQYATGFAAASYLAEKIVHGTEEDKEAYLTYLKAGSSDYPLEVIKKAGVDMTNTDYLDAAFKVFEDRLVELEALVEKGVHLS
Procedure: (§2) Overnight precultures were diluted at a final OD600 of 0.05. A volume of 300 μL of culture samples was transferred in the wells of a sterile covered white microplate with a transparent bottom (Greiner, Alphen a/d Rijn, The Netherlands). These culture samples were supplemented with D-xylose or IPTG if stated or further incubated for 100 min at 37°C before supplementation with sXIP or other peptides variants. Growth (OD600) and luciferase (Lux) activity (expressed in relative light units, RLU) were monitored at 10 min intervals during 6 to 24 h in a Hidex Sense microplate reader (Hidex, Lemminkäisenkatu, Finland). Specific or maximum specific Lux activity were obtained by dividing Lux activity by the OD600 for each measurement and summing all the data obtained over time or selecting the maximum value, respectively. Biological or technical triplicates were then averaged. Statistical analyses of simple and multiple comparisons to the control mean were performed with t-test (unilateral distribution, heteroscedastic) and one-way ANOVA with Dunnett’s test, respectively. For both, standard deviations and P values were calculated.
For PepF purification, the PCR-amplified pepF gene from strain HSISS4 was cloned into the pBAD-covR-STN-ter vector [24]. […] Protein purity was analyzed by SDS-PAGE and concentration was measured using a Nanodrop apparatus (A280 method; ThermoFisher Scientific). […]

PepFSsa = type: in vitro ADME, Streptococcus salivarius HSISS4; conditions: from EC50 values
Procedure: as §1
Supplementary file pgen.1010198.s009.tif: S9 Fig Conservation of PepF in salivarius streptococci and susceptibility of S. vestibularis sXIP to PepF degradation. (A) Alignment of PepF performed with CLC Main Workbench multiple alignment tool (http://www.clcbio.com/products/clc-main-workbench/). PepF from 4 representative strains (i.e. S. salivarius HSISS4, S. thermophilus LMD-9, S. thermophilus LMG18311 and S. vestibularis NTC12167) were used for the alignment. Red, orange, and yellow denote 100%, 75%, and 50% conservation, respectively. The conserved Zinc-binding motif HEXXH is underlined. […]

[5] = test system: PcomS-luxAB ΔcomS reporter strain; experiment: Screening of sXIP variants for competence activation; type: cell-based, Streptococcus salivarius; conditions: peptide 500 nM incubated 4 h 37°C without PepF, 10-fold diluted into PcomS-luxAB ΔcomS culture (CDM); mean of technical triplicates
Procedure: as §2
Supplementary file pgen.1010198.s004.tif: S4 Fig Screening of sXIP variants for competence activation and susceptibility to PepF degradation. […]

Substance | percentage of signal loss (PepF [1]) | also measured
APYFAGCL [APYFAGCL] | 87.3461% and 90.7518% | 
APYFMGCL [APYFMGCL] | 99.0138% | 
ITILPYFAGCL [ITILPYFAGCL] | 99.5087% | 
LAYFAGCL [LAYFAGCL] | 40.0979% | 
LPAFAGCL [LPAFAGCL] | 83.5452% | 
LPWFAGCL [LPWFAGCL] | 97.3022% | 
LPYAAGCL [LPYAAGCL] | 77.0857% | 
LPYFAACL [LPYFAACL] | 99.6712% | 
LPYFAGAL [LPYFAGAL] | 99.8977% | 
LPYFAGCL |  | cleaved bond (PepF [2]): F4-A5, major; also recorded: A5-G6, major
LPYFAGCL [sXIP, reference compound] | 99.5932% | 
LPYFAICL [LPYFAICL] | 1.804% | 
LPYFGGCL [LPYFGGCL] | 69.5765% | 
LPYFIGCL [LPYFIGCL] | 78.4996% | peptidase resistance in the screening (PepF [1]): higher peptidase resistance
LPYFMGCL [LPYFMGCL] | 85.0947% | peptidase resistance in the screening (PepF [1]): higher peptidase resistance
LPYFMICL [LPYFMICL] | 10.0484% | 
LPYFTGCL [LPYFTGCL] | 97.3896% | 
LPYFVGCL [LPYFVGCL] | 94.8201% | 
LPYWAGCL [LPYWAGCL] | 68.1634% | peptidase resistance in the screening (PepF [1]): higher peptidase resistance
LPYWIGCL [LPYWIGCL] |  | degradation kinetics compared to the WT pheromone (PepF [3]): reduced degradation kinetics; proteolysis by PepF in vitro (PepF [4]): slower proteolysis
LPYYAGCL [LPYYAGCL] | 89.6196% | peptidase resistance in the screening (PepF [1]): higher peptidase resistance
LPYYIGCL [LPYYIGCL] |  | proteolysis by PepF in vitro (PepF [4]): slower proteolysis
VPFFMIYY [sXIPSve] |  | PepF-mediated degradation, fold less efficient compared to XIPSsa/Sth (PepFSsa): ~ 15 fold
_PYFAGCL [sXIP variant of the screening lacking the first residue] |  | Max specific luciferase [5]: 1453.53 RLU/OD600
_PYFMGCL [sXIP variant of the screening lacking the first residue] | 28.6586% | Max specific luciferase [5]: 2144.5 RLU/OD600
